Assay [1] can be described thus: Cytotoxicity against mouse AML-12 cells by MTT assay. The following applies: AML12. It is filed as cell-based. In general terms: Tetrazolium dyes change colour on reduction, which living cells bring about.
The next assay concerns HepG2. Kind of assay: Antiproliferative activity against human HepG2 cells after 48 hrs by SRB assay. The note with it: HepG2, 48 h. It counts as functional, cell-based.
A short description of assay [2]: Selectivity ratio of IC50 for human Hs 371.T cells to IC50 for human MCF7 cells.
A short description of assay [3]: Selectivity ratio of IC50 for mouse AML-12 cells to IC50 for human HepG2 cells.
The target in assay [4] is Tubulin beta-5 chain (Homo sapiens) (UniProt P07437). The experiment in a line: Inhibition of tubulin beta polymerization in human HepG2 cells after 18 to 24 hrs by spectrophotometric method relative to control. It counts as cell-based. More on the design: concentration or dose not given beside the values. The following applies: concentration not given here.
Assay [5] shares this target. The experiment in a line: Inhibition of tubulin beta polymerization in human MCF7 cells after 18 to 24 hrs by spectrophotometric method relative to control. It counts as cell-based. The arrangement: concentration or dose not given beside the values. The note with it: concentration not given here.
Assay [6] deals with MCF7. Kind of assay: Antiproliferative activity against human MCF7 cells after 48 hrs by SRB assay. It is filed as functional, cell-based. The note with it: MCF7, 48 h. A general note: The SRB assay estimates cell density from bound dye.
The nature of assay [7]: Cytotoxicity against human Hs 371.T cells by MTT assay. It counts as cell-based.
For assay [8], the system named is MCF7. Kind of assay: Potency index, ratio of colchicine IC50 to compound IC50 for human MCF7 cells. It counts as functional.

These results are taken from ChEMBL document CHEMBL4002544, “Design, synthesis and cytotoxic activity of certain novel chalcone analogous compounds” (Eur J Med Chem, 2017).

Sequence of Tubulin beta-5 chain (Homo sapiens) (P07437 whole entry): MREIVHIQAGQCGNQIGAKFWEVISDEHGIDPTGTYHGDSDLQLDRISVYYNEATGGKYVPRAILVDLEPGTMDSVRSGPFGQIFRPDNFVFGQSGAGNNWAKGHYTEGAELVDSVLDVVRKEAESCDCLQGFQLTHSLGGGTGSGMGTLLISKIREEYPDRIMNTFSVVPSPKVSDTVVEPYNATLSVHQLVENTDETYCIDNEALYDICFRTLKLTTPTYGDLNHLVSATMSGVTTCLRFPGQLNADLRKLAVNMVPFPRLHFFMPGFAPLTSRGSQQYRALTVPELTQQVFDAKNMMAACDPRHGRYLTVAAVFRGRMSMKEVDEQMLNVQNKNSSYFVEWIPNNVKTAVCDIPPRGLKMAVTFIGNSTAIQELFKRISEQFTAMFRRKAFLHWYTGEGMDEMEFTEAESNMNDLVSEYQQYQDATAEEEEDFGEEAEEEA

The term IC50 denotes the concentration at which inhibition is half-maximal. By inhibition is commonly meant the change of the read-out against control, counted positive when it falls. For `COc1cccc(C2=NN(c3ccccc3)C(c3ccc(Cl)cc3)C2O)c1` (stereo unspecified), the concentration for half-maximal inhibition (IC50) came out at 74.1 nM in assay [1], 11 nM in the assay with HepG2, 9.7 nM with MCF7 [6] and 86.7 nM in [7]. The “Ratio IC50” value in assay [2] and in assay [3] was 2.5 - 9 throughout. Further, the inhibition in assay [4] was found to be 93%; in assay [5], 92.3%.

Consider `COc1ccc(C2=CC(c3ccc(Br)cc3)NC(=S)N2)cc1` (stereo unspecified), for which the half-inhibitory concentration (IC50) amounted to 30 nM with HepG2 and 126 nM with MCF7 [6]. Besides, the “Ratio IC50” value in the assay on MCF7 [8] was found to be 2. In assay [4], this molecule came in with an inhibition of 91.4%.

Turning to `COc1cccc(C2=NNC(c3ccc(Br)cc3)C2O)c1` (stereo unspecified), the results for the half-maximal inhibitory concentration (IC50) in the assay on HepG2 and in the assay with MCF7 [6] were 43 nM and 49 nM, respectively.

As for `COc1cccc(C2=NNC(c3ccc(Cl)cc3)C2O)c1` (stereo unspecified), the half-maximal inhibitory concentration (IC50) stood at 35.3 nM in the assay on HepG2 and 49 nM in the assay on MCF7 [6].

For the molecule `COc1cccc(C(=O)C2SC2c2ccc(Cl)cc2)c1` (stereo unspecified), the figures for the 50% inhibitory concentration (IC50) with HepG2 and in the assay with MCF7 [6] were 13 nM and 15 nM, respectively. Also, the inhibition is 88.6% in assay [4] and 89.3% in [5].

For `COc1cccc(C(=O)C(O)C(Nc2ccc(F)c(Cl)c2)c2ccc(Br)cc2)c1` (stereo unspecified), the IC50 was found to be 37.2 nM in the assay on HepG2, 9.9 nM in the assay on MCF7 [6] and 90.2 nM in [7]. For the same molecule, in assay [2], the “Ratio IC50” value was 2.5 - 9. The inhibition in [4] amounted to 88.5%; in [5], 92.2%.

Turning to `COc1cc(C2=CC(c3ccc(Br)cc3)NC(=S)N2)cc(OC)c1OC` (stereo unspecified), the IC50 in assay [1] was 59.4 nM; with HepG2, 9.5 nM; in the assay with MCF7 [6] it was 77 nM. In addition, the “Ratio IC50” value in [3] is reported as 2.5 - 9; with MCF7 [8] it was 2. The same molecule showed an inhibition in [4] of 92.8%.

Turning to `COc1cccc(C2=NN(c3ccccc3)C(c3ccc(Br)cc3)C2O)c1` (stereo unspecified), the IC50 in assay [1] stood at 26.9 nM; in the assay on HepG2 it was 9.9 nM; in the assay with MCF7 [6], 11 nM; in [7], 474 nM. In addition, the “Ratio IC50” value in [2] and in assay [3] was 2.5 - 9 each time. The inhibition in [4] amounted to 84.6%; in assay [5], 87.8%.

`COc1ccc(C2=NN(c3ccccc3)C(c3ccc(OC)cc3)C2O)cc1` (stereo unspecified): the half-maximal inhibitory concentration (IC50) in the assay on HepG2 was found to be 10.2 nM; in the assay on MCF7 [6] it was 19 nM.

Regarding `COc1cccc(C(=O)C2SC2c2ccc(Br)cc2)c1` (stereo unspecified), the IC50 was 11 nM in the assay with HepG2 and 23 nM in the assay on MCF7 [6]. In [4], this molecule returned an inhibition of 85.7%.

On to `COc1cccc(C2=CC(c3ccc(Br)cc3)NC(=S)N2)c1` (stereo unspecified), for which the half-maximal inhibitory concentration (IC50) with HepG2 came to 34 nM; in the assay with MCF7 [6], 135 nM. For the same molecule, in the assay with MCF7 [8], the “Ratio IC50” value turned out to be 2.

With `COc1cc2c(c(OC)c1OC)-c1ccc(OC)c(=O)cc1[C@@H](NC(C)=O)CC2` [COLCHICINE], the IC50 in [1] stood at 138 nM; in the assay with HepG2, 124 nM; in the assay with MCF7 [6] it was 150 nM; in [7], 443 nM.

`COc1ccc(C2=NN(c3ccccc3)C(c3ccc(F)cc3)C2O)cc1` (stereo unspecified): the IC50 came out at 13 nM with HepG2 and 16 nM with MCF7 [6].

For `COc1ccc(C(=O)C2OC2c2ccc(Cl)cc2)cc1` (stereo unspecified), the IC50 with HepG2 was 15 nM; in the assay on MCF7 [6] it was 26 nM.

In the case of `COc1cc(C2=CC(c3ccc(Cl)cc3)NC(=S)N2)cc(OC)c1OC` (stereo unspecified), the IC50 in [1] was 88.5 nM; in the assay with HepG2, 11 nM; with MCF7 [6], 120 nM. For the same molecule, the “Ratio IC50” value is on record as 2.5 - 9 in assay [3] and 2 in the assay on MCF7 [8]. The inhibition in assay [4] came out at 92.4%.

For the molecule `COc1cc(C2=CC(c3ccc(F)cc3)NC(=S)N2)cc(OC)c1OC` (stereo unspecified), the figures for the half-maximal inhibitory concentration (IC50) in the assay with HepG2 and with MCF7 [6] were 61.9 nM and 125 nM, respectively. The “Ratio IC50” value in the assay on MCF7 [8] is recorded as 2.

`COc1cccc(C(=O)C2OC2c2ccc(F)cc2)c1` (stereo unspecified): the results for the IC50 in the assay on HepG2 and in the assay on MCF7 [6] were 17 nM and 14 nM, respectively. Also, the “Ratio IC50” value in the assay on MCF7 [8] is 10. In assay [5], the inhibition was 88.4%.

Regarding `COc1cccc(C2=CC(c3ccc(Cl)cc3)NC(=S)N2)c1` (stereo unspecified), the half-maximal inhibitory concentration (IC50) with HepG2 was determined as 54 nM; with MCF7 [6] it was 150 nM. The “Ratio IC50” value in the assay on MCF7 [8] is on record as 2. Besides, in assay [4], the inhibition came to 90.6%.

Take `COc1ccc(C2C=C(c3cc(OC)c(OC)c(OC)c3)NC(=S)N2)cc1` (stereo unspecified): the half-inhibitory concentration (IC50) with HepG2 is 90 nM; in the assay with MCF7 [6], 103 nM. For the same molecule, the “Ratio IC50” value with MCF7 [8] is on record as 2.
